# Reference: patent publication US20070219180A1, “Muscle Relaxtion Accelerator and Therapeutic Agent for Muscular Tissue Diseases Such as Muscle Relaxation Failure” (priority 2004, published 2007)
# Several values for one entry are separate records, joined by “and”; a condition that tells them apart may be missing. Equal values may be shown once.
# Key:
# white rabbits = assay: Experiment 8: inhibition of clofilium-induced torsades de pointes; assay type: in vivo, rabbit
# Procedure: Inhibition of clofilium-induced torsades de pointes by the compound In this experiment, four white rabbits (weight: 2.8-3.2 kg) were used. Each rabbit was intravenously anesthetized with 5 mg/kg methohexital sodium. Injection catheters for the compound and test drug were inserted into the right external jugular veins of the rabbits, and microchip catheters (SPC-320, Millar) for blood pressure measurement were inserted via the right common arteries, under artificial respiration by endotracheal intubation.
# The compound solution was prepared by dissolving 100 mg of the compound in 1 ml of dimethylsulfoxide (DMSO), and stored at 4° C.
# A 2-lead electrocardiogram and blood pressure of each rabbit were recorded simultaneously on a personal computer via an A/D converter. In this experiment, a sequence of more than 6 polymorphic ventricular tachycardia configurations on the electrocardiogram was defined as torsades de pointes. The number of onsets of torsades de pointes was recorded by electrocardiogram for 30 minutes after administration of clofilium. Methoxamine (an α-stimulant) was used to rapidly induce torsades de pointes. The compound, methoxyamine and clofilium were administered in physiological saline. […]
# male Wistar rats = assay: Experiment 12: effect on myocardial microcirculation (microsphere myocardial tissue blood flow rate); assay type: in vivo, rat
# Procedure: The effects of the compound on myocardial microcirculation were examined. In this experiment, the 1-hydrochloride of the compound, 4-[3-(4-benzylpiperidin-1-yl)propionyl]-7-methoxy-2,3,4,5-tetrahydro-1,4-benzothiazepine 1-hydrochloride (hereinafter called the compound) was used as the 1,4-benzothiazepine derivative or pharmaceutically acceptable salt thereof.
# Four 8-week old male Wistar rats weighing 300-310 g were used in the study. The rats were anesthetized with 1,000 mg/kg of urethane and 80 mg/kg of α-chloralose by subperitoneal injection under artificial respiration (Harvard) using endotracheal intubation. In this experiment, 100 mg of the compound was dissolved in 1 ml of dimethylsulfoxide (DMSO) and the resulting DMSO solution of the compound was stored at 4° C. Norepinephrine solution was prepared by dissolving 1 mg of norepinephrine in 41 μl of distilled water, at an infusion speed of 30 μg/kg/min.
# Firstly, continuous infusion catheters of calcium chloride solution or norepinephrine solution containing calcium chloride were inserted into the right external jugular veins of the rats, and 2F polyethylene catheters for microspheres were inserted into the left ventricles via the right common arteries. In addition, test drug infusion catheters were inserted into the right femoral veins.
# A 1-lead electrocardiogram and the left ventricular pressure were recorded simultaneously on a personal computer via an A/D converter. In the preparation step, blood pressure, pulse, and electrocardiogram of the rats were monitored for 15 minutes and allowed to stabilize, and then 5% dextrose solution containing calcium chloride (at a concentration based on the weight of the rat) was infused into the right external jugular vein for 20 minutes at 16.6 μl/min (12 mg/kg/min of calcium chloride). Next, norepinephrine solution containing calcium chloride without changes in dosage regimen was immediately injected at a rate of 30 μg/kg/min via the right external jugular vein. After the start of administration, calcium chloride and norepinephrine were then continuously injected in the form of a norepinephrine solution containing calcium chloride. With continuous injection of calcium chloride via the right external jugular vein, 5% dextrose solution containing 0.1% DMSO solution was administered via the right femoral vein to Control A rat weighing 310 g (to which the compound was not administered) and to Control B rat weighing 300 g (to which the compound was not administered), 5 minutes before commencement of injection (intravenous injection) of the norepinephrine solution containing calcium chloride. In addition, with continuous injection of calcium chloride via the right external jugular vein, a 5% dextrose solution of the compound was continuously administered to Test 15 rat weighing 300 g and Test 16 rat weighing 300 g for 3 minutes at a rate of 0.33 mg/kg/min and subsequently for 25 minutes at a rate of 0.01 mg/kg/min, 5 minutes before commencement of injection (intravenous injection) of the norepinephrine solution containing calcium chloride via the right external jugular vein. The infusion rate was 0.5 ml/3 minutes for the first 3 minutes and then 0.05 ml/3 minutes.
# Myocardial tissue blood flow rate was measured twice using microspheres, 5 minutes before the start of calcium chloride administration and 20 minutes after the start of administration of norepinephrine solution containing calcium chloride. […]
smiles,measurement,setting,value
"COc1ccc2c(c1)CN(C(=O)CCN1CCC(Cc3ccccc3)CC1)CCS2 [the compound, 4-[3-(4-benzylpiperidine-1-yl)propionyl]-7-methoxy-2,3,4,5-tetrahydro-1,4-benzothiazepine]",Onset of torsades de pointes (electrocardiogram),"white rabbits; clofilium 50 μg/kg/min + the compound 0.2 mg/kg/min i.v., monitored 30 minutes",completely prevented
same,Incidence of torsades de pointes,"white rabbits; number of onsets in 30 minutes after start of clofilium 50 μg/kg/min under methoxamine 15 μg/kg/min, the compound 0.2 mg/kg/min i.v. for 30 min",0
same,Myocardial tissue blood flow rate,"male Wistar rats; 5 minutes before the start of CaCl2 administration (baseline), compound later 0.33 mg/kg/min 3 min then 0.01 mg/kg/min 25 min",4.6 mL/min/g and 4.3 mL/min/g
same,"Myocardial tissue blood flow rate, ratio to 5 minutes before CaCl2",male Wistar rats; 5 minutes before the start of CaCl2 administration (defined as 100%),100%
same,Decrease in myocardial tissue blood flow under diastolic dysfunction with administration of the compound,male Wistar rats; 20 minutes after the start of norepinephrine containing CaCl2,≤ 30%
same,"Myocardial tissue blood flow rate, ratio to 5 minutes before CaCl2","male Wistar rats; 20 minutes after the start of norepinephrine solution containing CaCl2, compound 0.33 mg/kg/min 3 min then 0.01 mg/kg/min 25 min",70% and 98%
same,Myocardial tissue blood flow rate,"male Wistar rats; 20 minutes after the start of norepinephrine solution containing CaCl2, compound 0.33 mg/kg/min 3 min then 0.01 mg/kg/min 25 min, from 5 min before norepinephrine",3.2 mL/min/g and 4.2 mL/min/g
